Data: patent publication US6855730B2, “3-methylidenyl-2-indolinone modulators of protein kinase” (Sugen, Inc., priority 1998, dated 2005)

Assays:
human flk-1 = biological target: T1, human flk-1 (Homo sapiens, UniProt P35968); experiment: Biochemical FLK-1 assay (flk-1 autophosphorylation ELISA); settings: read-out: bio FLK1 IC50 (μM) % if inhibition at 100
T1 construct: host or cells: Flk-1/NIH cells (NIH fibroblasts)
Procedure: This assay evaluates flk-1 autophosphorylation activity in vitro using ELISA.
Materials And Reagents • 1. 15 cm tissue culture dishes • 2. Flk-1/NIH cells: NIH fibroblast line over-expressing human flk-1clone 3 (SUGEN, Inc., obtained from MPI, Martinsried, Germany). • 3. Growth medium: DMEM plus heat inactivated 10% FBS and 2 mM Glutamine (Gibco-BRL). • 4. Starvation medium: DMEM plus 0.5% heat-inactivated FBS, 2 mM Glutamine (Gibco-BRL). • 5. […] L4 or E38 monoclonal antibody specific for flk-1, Purified by Protein-A agarose affinity chromatography (SUGEN, Inc.). • 7. PBS (Dulbecco's Phosphate-Buffered Saline) Gibco Cat. No. 450-1300EB). • 8. HNTG (see BIOCHEMICAL FGFR for preparation). • 9. Pierce BCA protein determination kit. • 10. Blocking buffer • 11. TBST (pH 7.0) • 12. Kinase Buffer • 13. Kinase Stop Solution: 200 mM EDTA. • 14. […] AB kit (Vector Laboratories Cat. No. PK 4000). • 16. DMSO • 17. NUNC 96-well V bottom polypropylene plates (Applied Scientific Cat. No. AS-72092). • 18. Turbo-TMB (Pierce). • 19. Turbo-TMB stop solution: 1 M H2SO4. • 20. ATP (Sigma Cat. No. A-7699). • 21. 20% DMSO in TBS (pH 7.0). Procedure
Cell Growth and Lysate Preparation. • 1. Seed cell into growth medium and grow for 2-3 days to 90-100% confluency at 37° C. and 5% CO2.
2. Remove the medium and wash the cells twice with PBS. Lyse with HNTG lysis buffer. Collect all lysates and vortex mix them for 20-30 seconds. • 3. Remove insoluble material by centrifugation (5-10 min at about 10,000 ×g). • 4. Determine the protein concentration using BCA kit. • 5. Partition lysate into 1 mg aliquots, store at −80° C.
Assay Procedure • 1. Coat Corning 96-well ELISA plates with 2 μg/well purified L4 (or E 38) in 100 μl of PBS. Store overnight at […] • 2. Remove unbound proteins from wells by inverting the plate to remove the liquid. Wash one time with dH2O, pat plate on paper towel to remove excess liquid. • 3. Block plates with 150 μl blocking buffer per well. Incubate for 45-60 minutes with shaking at 4° C. • 4. Remove the blocking buffer and wash the ELISA plate three times with dH2O and one time with TBST. Pat plate on paper towel to remove excess liquid. • 5. Dilute lysate in PBS to give final concentration of 50 μg/100 μl. Add 100 μl of diluted lysate to each well. Incubate with shaking at 4° C. overnight. • 6. Remove unbound proteins from wells by inverting the plate. Wash as in step 4. • 7. Add 80 μl of kinase buffer to wells (90 μl to negative control wells). • 8. Dilute test compounds (normally 10-fold) into wells of a polypropylene plate containing 20% DMSO in TBS. • 9. Add 10 μl of the diluted compounds to the ELISA wells containing immobilized flk-1 and shake. Control wells receive no compounds. • 10. From stock 1 mM ATP, prepare 0.3 mM ATP solution in dH2O (alternatively, kinase buffer may be used). • 11. Add 10 μl of 0.3 mM ATP to all wells except the negative controls. Incubate for 60 min. at room temperature with shaking. • 12. After 1 hr stop the kinase reaction by adding 11 μl 200 mM EDTA. Shake for 1-2 min. • 13. Wash the ELISA plate 4 times with dH2O and twice with TBST. • 14. Add 100 μl of 1:5000 biotinylated 4G10:TBST to all wells. Incubate 45 min with shaking at room temperature. • 15. While the above is incubating, add 50 μl of solutions A & B from the ABC kit to 10 ml of TBST. These solutions must be combined approximately 30 min prior to use. • 16. Wash plates as in step 4. • 17. Add 100 μl of the preformed A & B complex to all wells. Incubate 30 min with shaking at room temperature. • 18. Wash plates as in step 4. • 19. Add 100 μl turbo-TMB. Shake at room temperature for 10-15 min. • 20. When the color in the positive control wells reaches an absorbance of about 0.35-0.4, stop the reaction with 100 μl of turbo-TMB stop solution. • 21. Read plates on Dynatech MR7000 ELISA reader, test filter: 450 nM, reference filter: 410 nM.

flkGST = biological target: T2, flkGST (Homo sapiens, UniProt P35968); experiment: bio flkGST assay; format: biochemical
T2 construct: GST

PDGFR-β = biological target: T3, PDGFR-β (Homo sapiens, UniProt P09619); experiment: Biochemical PDGFR assay (ELISA, PDGFR-β expressing NIH 3T3 cell lysate); settings: read-out: bio PDGF IC50
T3 construct: host or cells: NIH 3T3
Method in brief: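 Phosphorylation was read by ELISA (anti-phosphotyrosine serum, peroxidase secondary, ABTS at 410 nm) after a 30 min room-temperature reaction with 20 μM ATP, EDTA-stopped. Kinase was lysate-derived PDGFR-β (NIH 3T3) immobilised via 28D4C10 antibody, compound added 30 min before ATP.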

[1] = biological target: Myc-GyrB-FGFR fusion protein (Homo sapiens, UniProt P11362); experiment: Biochemical FGFR assay (ELISA); settings: read-out: bio fgfR1 IC50
Myc-GyrB-FGFR fusion protein, sequence (P11362 478-767 limits assumed): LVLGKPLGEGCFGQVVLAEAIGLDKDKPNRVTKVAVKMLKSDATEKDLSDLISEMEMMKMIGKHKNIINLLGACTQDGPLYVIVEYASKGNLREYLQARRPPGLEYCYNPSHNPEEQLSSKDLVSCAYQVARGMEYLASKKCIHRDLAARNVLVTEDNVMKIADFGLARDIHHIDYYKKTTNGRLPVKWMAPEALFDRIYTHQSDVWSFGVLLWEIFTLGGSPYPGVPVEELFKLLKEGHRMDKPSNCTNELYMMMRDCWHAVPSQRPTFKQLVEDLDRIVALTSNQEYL
Procedure: This assay measures in vitro kinase activity of the Myc-GyrB-FGFR fusion protein using ELISA.
Materials and Reagents • 1. HNTG
PBS (Dulbecco's Phosphate-Buffered Saline, Gibco Catalog # 450-1300EB). • 3. Blocking Buffer. • 4. Kinase Buffer.
Working solution: 100 mM in ethanol. • 6.
ABTS Solution. • 10. Hydrogen peroxide 30% solution ( Fisher Catalog # H325). • 11. ABTS/H2O2. • 12. 0.2 M HCl. • 13.
Prepare 1.0 mM solution in MilliQ H2O, adjust pH to 7.2 with HCl. • 14.
Prepare 5 M solution in MilliQ H2O. • 15. MgCl, (Fisher Cat. No. M33-500).
Prepare 1 M solution in MilliQ H2O. • 16. HEPES (Fisher Cat. No. BP310-500).
Prepare 1 M solution in MilliQ H2O, adjust pH to 7.5, sterile filter. • 17. TBST Buffer. • 18. Sodium Carbonate Buffer (Fisher Cat. No. S495).
Prepare 0.1 M solution in MilliQ H2O, adjust pH to 9.6 with NaOH, filter. • 19. Dithiothreitol (DTT, Fisher Cat. No. BP172-25).
Prepare 0.5 mM working solution in MilliQ H2O just prior to-use. Store at −20° C. until used, discard any leftover. • 20. MnCl2. • 21. Triton X-100. • 22. Goat α-Rabbit IgG (Cappel). • 23. Affinity purified Rabbit α GST GyrB (Biochemistry Lab. SUGEN, Inc.).
All of the following steps are conducted at room temperature unless otherwise indicated. • 1. Coat Corning 96-well ELISA plates with 2 μg Goat α-Rabbit antibody per well in Carbonate Buffer such that total well volume is 100 μl. Store overnight at 40° C. • 2. Remove unbound Goat a-Rabbit antibody by inverting plate to remove liquid. Pat plate on a paper towel to remove excess liquid and bubbles • 3.. Add 150 μl Blocking Buffer (5% Low Fat Milk in PBS) to each well. Incubate while shaking on a micro-titer plate shaker for 30 min. • 4. Wash 4× with TBST. Pat plate on a paper towel to remove excess liquid and bubbles. • 5. Add 0.5 μg Rabbit α-GyrB antibody per well. Dilute antibody in DPBS to a final volume of 100 μl per well. Incubate with shaking on a micro-titer plate shaker at room temperature for 1 hour. • 6. Wash 4× with TBST as described in step 4. • 7. Add 2 μg COS/FGFR cell lysate (Myc-GyrB-FGFR source) in HNTG to each well to give a final volume of 100 μl per well. Incubate with shaking on a micro-titer plate shaker for 1 hour. • 8. Wash 4× with TBST as described in step 4. • 9. Add 80 μl of 1× kinase buffer per well. • 10. […] Transfer 10 μ l of diluted test compound solution and control wells from polypropylene plate wells to the corresponding ELISA plate wells, incubate with shaking on a micro-titer plate shaker for 20 minutes. • 12. Add 10 μl of 70 μM ATP diluted in kinase buffer to positive control and test wells (Final ATP concentration is 7 EM/well). Add 10 μl 1× kinase buffer to negative control wells. Incubate with shaking on a micro-titer plate shaker for 15 min. • 13. Stop kinase reaction by adding 5 μl 0.5 M EDTA to all wells. • 14. Wash 4× with TBST as described in step 4. • 15. Add 100 μl biotin conjugated α-phosphotyrosine mab (b4G10) diluted in TBST to each well. Incubate with shaking on a micro-titer plate shaker for 30 minutes. • 16. Prepare Vectastain ABC reagent. […] Mix by inverting tube several times. Add 1 drop reagent B and mix again. • 17. Wash 4× with TBST as described in step 4. • 18. Add 100 μl ABC HRP reagent to each well. Incubate with shaking on a micro-titer plate shaker for 30 minutes. • 19. Wash 4× with TBST as described in step 4. • 20. Add 100 μl of ABTS/H2O2 solution to each well. • 22. Incubate 5 to 15 minutes with shaking. Remove any bubbles. • 23. If necessary stop reaction by adding 1 00 μl of 0.2M HCl/well. • 24.

T1 sequence (P35968 20-1356): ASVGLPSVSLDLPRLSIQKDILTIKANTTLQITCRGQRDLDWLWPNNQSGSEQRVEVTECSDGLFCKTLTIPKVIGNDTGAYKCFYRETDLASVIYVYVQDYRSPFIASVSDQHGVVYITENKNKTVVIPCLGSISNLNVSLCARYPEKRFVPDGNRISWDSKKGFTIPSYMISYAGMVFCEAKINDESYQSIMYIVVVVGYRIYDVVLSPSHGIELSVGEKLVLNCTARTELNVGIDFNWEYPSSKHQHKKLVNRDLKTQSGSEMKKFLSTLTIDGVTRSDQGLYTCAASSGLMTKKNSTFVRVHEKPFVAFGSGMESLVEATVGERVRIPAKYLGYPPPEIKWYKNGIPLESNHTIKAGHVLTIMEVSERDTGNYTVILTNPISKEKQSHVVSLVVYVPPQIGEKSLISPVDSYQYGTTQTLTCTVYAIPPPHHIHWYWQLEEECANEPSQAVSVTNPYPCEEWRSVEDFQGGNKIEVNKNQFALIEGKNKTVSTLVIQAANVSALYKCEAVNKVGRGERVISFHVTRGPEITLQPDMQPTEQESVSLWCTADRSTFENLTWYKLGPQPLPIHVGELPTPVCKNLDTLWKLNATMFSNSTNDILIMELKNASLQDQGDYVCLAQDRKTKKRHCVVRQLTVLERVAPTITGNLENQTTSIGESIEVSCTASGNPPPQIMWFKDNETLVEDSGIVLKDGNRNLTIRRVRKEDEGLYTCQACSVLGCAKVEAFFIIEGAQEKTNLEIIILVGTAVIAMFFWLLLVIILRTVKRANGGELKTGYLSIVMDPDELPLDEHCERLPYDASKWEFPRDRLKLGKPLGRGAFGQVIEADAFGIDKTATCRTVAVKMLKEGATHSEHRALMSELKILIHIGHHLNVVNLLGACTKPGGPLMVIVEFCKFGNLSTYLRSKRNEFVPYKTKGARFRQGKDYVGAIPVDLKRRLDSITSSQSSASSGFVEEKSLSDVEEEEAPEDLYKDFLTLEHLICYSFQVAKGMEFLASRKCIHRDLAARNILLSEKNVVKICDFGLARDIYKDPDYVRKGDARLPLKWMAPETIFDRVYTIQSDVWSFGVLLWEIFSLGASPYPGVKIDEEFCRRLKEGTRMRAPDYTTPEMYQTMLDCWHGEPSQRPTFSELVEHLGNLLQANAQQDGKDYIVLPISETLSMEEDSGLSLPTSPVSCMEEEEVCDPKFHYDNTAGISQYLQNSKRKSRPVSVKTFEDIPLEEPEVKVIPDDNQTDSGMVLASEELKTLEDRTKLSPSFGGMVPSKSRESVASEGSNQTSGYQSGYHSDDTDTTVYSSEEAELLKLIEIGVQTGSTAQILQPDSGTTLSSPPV
T3 sequence (P09619 33-1106): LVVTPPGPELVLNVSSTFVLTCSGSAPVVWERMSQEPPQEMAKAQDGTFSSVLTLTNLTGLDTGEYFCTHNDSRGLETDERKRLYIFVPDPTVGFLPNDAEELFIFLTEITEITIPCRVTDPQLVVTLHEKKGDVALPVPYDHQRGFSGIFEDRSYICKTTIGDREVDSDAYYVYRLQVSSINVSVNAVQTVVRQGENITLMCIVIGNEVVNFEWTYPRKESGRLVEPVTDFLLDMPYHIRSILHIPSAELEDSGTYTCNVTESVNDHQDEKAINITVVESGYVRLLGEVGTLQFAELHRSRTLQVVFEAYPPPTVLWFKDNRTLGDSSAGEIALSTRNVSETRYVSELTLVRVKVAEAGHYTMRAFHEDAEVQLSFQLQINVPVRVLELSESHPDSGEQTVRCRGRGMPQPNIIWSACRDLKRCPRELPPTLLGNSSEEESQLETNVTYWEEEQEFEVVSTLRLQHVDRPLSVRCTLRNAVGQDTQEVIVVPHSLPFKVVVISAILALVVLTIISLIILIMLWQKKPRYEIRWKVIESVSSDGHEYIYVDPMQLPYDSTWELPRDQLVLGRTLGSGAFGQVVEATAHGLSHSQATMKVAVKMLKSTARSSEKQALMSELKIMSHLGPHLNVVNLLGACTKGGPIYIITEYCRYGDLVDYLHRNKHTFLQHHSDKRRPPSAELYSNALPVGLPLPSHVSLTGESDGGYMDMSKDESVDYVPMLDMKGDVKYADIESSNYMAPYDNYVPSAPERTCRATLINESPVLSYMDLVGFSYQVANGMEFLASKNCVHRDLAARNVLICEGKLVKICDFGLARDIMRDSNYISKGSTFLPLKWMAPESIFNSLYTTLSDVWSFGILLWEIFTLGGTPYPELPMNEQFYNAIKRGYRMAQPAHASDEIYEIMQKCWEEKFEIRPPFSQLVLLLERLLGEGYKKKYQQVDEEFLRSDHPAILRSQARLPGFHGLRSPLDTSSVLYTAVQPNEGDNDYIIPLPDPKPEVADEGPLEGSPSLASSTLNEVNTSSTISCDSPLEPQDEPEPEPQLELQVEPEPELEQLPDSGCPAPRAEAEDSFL
T2 sequence (P35968 786-1356 limits assumed): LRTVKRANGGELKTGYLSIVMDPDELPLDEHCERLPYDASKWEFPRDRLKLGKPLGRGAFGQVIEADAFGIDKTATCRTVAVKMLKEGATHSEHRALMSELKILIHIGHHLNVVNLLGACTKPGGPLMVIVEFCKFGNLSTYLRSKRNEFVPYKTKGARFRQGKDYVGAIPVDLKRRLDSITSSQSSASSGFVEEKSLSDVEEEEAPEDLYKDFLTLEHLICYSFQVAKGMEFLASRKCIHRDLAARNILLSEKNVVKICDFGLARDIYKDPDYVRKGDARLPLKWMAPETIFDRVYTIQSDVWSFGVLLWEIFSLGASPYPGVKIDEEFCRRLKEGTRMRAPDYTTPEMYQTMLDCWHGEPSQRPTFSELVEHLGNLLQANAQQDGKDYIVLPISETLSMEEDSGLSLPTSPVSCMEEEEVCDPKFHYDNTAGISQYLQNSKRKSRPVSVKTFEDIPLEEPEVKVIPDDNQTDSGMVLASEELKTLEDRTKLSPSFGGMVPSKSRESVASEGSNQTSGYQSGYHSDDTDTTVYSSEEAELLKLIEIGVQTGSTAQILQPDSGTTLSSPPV

Question: `Nc1ccc2c(c1)/C(=C/c1cc3ccccc3[nH]1)C(=O)N2` [Example 160, 5-Amino-3-(1H-indol-2-ylmethylene)-1,3-dihydro-indol-2-one] was tested. Which IC50 (human flk-1) did it give?
Answer: Its IC50 is 1.53 µM.

Question: And the IC50 (flkGST)?
Answer: Its IC50 is 0.12 µM.

Question: And the IC50 (PDGFR-β)?
Answer: Its IC50 is 2.72 µM.

Question: What about the IC50 [1] of the same compound?
Answer: Its IC50 is 5.27 µM.

Question: Which results are given for `O=C1Nc2ccc(C(=O)O)cc2/C1=C/c1cc2ccccc2[nH]1` [Example 161, 3-(-1H-Indol-2-ylmethylene)-2-oxo-2,3-dihydro-1H-indole-5-carboxylic acid]?
Answer: IC50 (human flk-1): 2.1 µM; IC50 (flkGST): < 0.008 µM; IC50 (PDGFR-β): 25.1 µM; IC50 [1]: > 20 µM

Question: What does the source list for `Cc1c(/C=C2\C(=O)Nc3ccc(Br)cc32)[nH]c2ccccc12` [Example 169, 5-bromo-3-(3-methyl-1H-indol-2-ylmethylene)-1,3-dihydro-indol-2-one]?
Answer: IC50 (human flk-1): 15.8 µM; IC50 (PDGFR-β): > 100 µM; IC50 [1]: > 20 µM

Question: Which results are given for `Cc1cccc2c1/C(=C/c1[nH]c3ccccc3c1C)C(=O)N2` [Example 170, 4-Methyl-3-(3-methyl-1H-indol-2-ylmethylene)-1,3-dihydroindol-2-one]?
Answer: IC50 (human flk-1): 10.7 µM; IC50 (PDGFR-β): > 100 µM; IC50 [1]: > 20 µM

Question: How did the IC50 (human flk-1) turn out when `COc1ccccc1-c1ccc2c(c1)NC(=O)/C2=C\c1[nH]c2c(c1CCC(=O)O)CCCC2` [Example 207, 3-{2-[6-(2-Methoxyphenyl)-2-oxo-1,2-dihydro-indol-3-ylidenemethyl]-4,5,6,7-tetrahydro-1H-indol-3-yl}-propionic acid] was run?
Answer: Its IC50 is 2.72 µM.

Question: And the IC50 (flkGST)?
Answer: The IC50 was 1.5 µM.

Question: What about the IC50 (PDGFR-β) of the same compound?
Answer: The IC50 was 0.87 µM.

Question: And the IC50 [1]?
Answer: Its IC50 is 7.7 µM.
